{"source": "patent US20250312409A1", "about": "“METHODS OF TREATING DILATED CARDIOMYOPATHY AND HEART FAILURE” (ARIZONA BOARD OF REGENTS ON BEHALF OF THE UNIVERSITY OF …, priority 2022, published 2025)", "key": {"male DCM mice [1]": {"system": "male DCM mice", "assay": "Plasma biomarkers (ELISA) in degarelix-treated DCM mice", "assay_type": "in vivo, mouse", "settings": "20 weeks of age", "procedure": "Ejection fraction (EF, %) (FIG. 4A), heart-to-body weight ratios, HW/BW (FIG. 4B), lung-to-body weight ratios, LW/BW, (FIG. 4C) and pleural effusion, (FIG. 4D) were analyzed in male mice with DCM and WT control mice (C57BL/6J) at 20 weeks of age corresponding to Stage D HF in non-treated DCM mice. Groups: Normal non-T-treated DCM mice (black, left bar); Low T ( 20%) DCM mice treated with degarelix, 15 mg/kg subcutaneous injection every 4 weeks (blue, right bar). Dotted line: Levels in WT congenic group (n=8). T plasma level analyzed by ELISA. Data (FIG. 4A-4C) analyzed by One-way-ANOVA with Tukey's multiple comparison test and represent mean t SEM. (FIG. 4D) analyzed by Fisher exact test. […] Groups: at 20 weeks of age=Stage D HF in non-castrated DCM mice. Normal T (100%) non-treated DCM mice (black, left bar); Low T ( 17%) castrated or degarelix-treated DCM mice (blue, right bar); Dotted line: Levels in WT congenic group (n=6-8). T plasma level analyzed by ELISA. Data analyzed by One-way-ANOVA with Tukey's multiple comparison test and represented as mean f SEM; +++P<0.001 in DCM vs. WT group; ****P<0.0001 in castrated vs non-castrated DCM groups. […] Plasma biomarkers levels were analyzed in littermate mice with and without DCM. […] Groups: Normal T, non-treated DCM mice (black, left bar); Low T ( 20%), DCM mice treated with degarelix, 15 mg/kg subcutaneous injection every 4 weeks (blue, right bar). Dotted line: level in WT congenic group (n=6). T plasma level analyzed by ELISA. Data analyzed by One-way-ANOVA with Tukey's multiple comparison test and represent mean t SEM; *=between DCM groups: **P<0.01; DCM groups vs. WT group: ++++P<0.0001; +++P<0.001."}, "male WT mice (C57BL/6J)": {"system": "male WT mice (C57BL/6J)", "assay": "Degarelix treatment of WT control mice (EF, plasma ANP and cGMP)", "assay_type": "in vivo, mouse", "settings": "male WT vs untreated WT group", "procedure": "(§1) Treatment was initiated at 4 weeks of age when mice were at risk for DCM. The EF was analyzed at 20 weeks when DCM untreated mice progressed to Stage D HF. […] This treatment also elevated EF in males WT vs. untreated WT group (Mann-Whitney test: P<0.01)."}, "humans and mice": {"system": "humans and mice", "settings": "cited from earlier work"}, "male DCM mice [2]": {"system": "male DCM mice", "assay": "Degarelix treatment in progressive DCM mouse model: cardiac function, remodeling, edema, HF", "assay_type": "in vivo", "procedure": "Ejection fraction (EF, %) (FIG. 4A), heart-to-body weight ratios, HW/BW (FIG. 4B), lung-to-body weight ratios, LW/BW, (FIG. 4C) and pleural effusion, (FIG. 4D) were analyzed in male mice with DCM and WT control mice (C57BL/6J) at 20 weeks of age corresponding to Stage D HF in non-treated DCM mice. Groups: Normal non-T-treated DCM mice (black, left bar); Low T (˜20%) DCM mice treated with degarelix, 15 mg/kg subcutaneous injection every 4 weeks (blue, right bar). Dotted line: Levels in WT congenic group (n=8). T plasma level analyzed by ELISA. Data (FIG. 4A-4C) analyzed by One-way-ANOVA with Tukey's multiple comparison test and represent mean t SEM. (FIG. 4D) analyzed by Fisher exact test.\nTo gain translational insights relevant to human DCM-HF, inventors analyzed the outcome of T-lowering therapy in a well-established mouse progressive DCM model on C57BL/6J strain with defined age-related HF stages (time points) for evaluation of systolic function, edema, blood sample collections, etc., in studies of male and female DCM mice. This animal model is normotensive and without kidney dysfunction, and arrhythmia, which excludes variables of blood pressure, arrhythmias, and kidney dysfunction.\nas §1"}, "[3]": {"system": "male and female mice with DCM and WT littermates", "settings": "mouse, in vivo"}, "castrated male DCM mice": {"system": "castrated male DCM mice", "assay": "Partial restoration of T (implanted pellets) in castrated DCM mice", "assay_type": "in vivo, mouse", "procedure": "Ejection fraction (EF, %) was analyzed in littermate DCM male mice (on C57BL/6J background) at 20 weeks of age corresponding to Stage D heart failure (HF) in non-castrated DCM mice. […] Dotted line: level in WT congenic group (n=8). T plasma levels analyzed by ELISA. Data analyzed by One-way-ANOVA with Tukey's multiple comparison test and represent mean+/−SEM; *=between DCM groups; **P<0.001; +=DCM groups vs. WT group: ++++P<0.0001.\nFIGS. 2A-2B show lowering testosterone (T) levels increases cGMP levels in plasma (FIG. 2A) and cytosol fraction of cardiac LV extract (FIG. 2B) of male DCM mice. cGMP was analyzed in littermate mice by ELISA; data were normalized to 100 ug of total protein in extracts. Groups: at 20 weeks of age=Stage D heart failure (HF) in non-castrated DCM mice. […] Dotted line: level in WT congenic group (n=8). T plasma levels analyzed by ELISA. Data analyzed by One-way-ANOVA with Tukey's multiple comparison test and represent mean+/−SEM; *=between DCM groups; **P<0.001; +=DCM groups vs. WT group: ++++P<0.0001.\nReferring to FIG. 1, T suppression in male DCM mice (low level) by surgical castration (initiated at HF stage A) improves systolic dysfunction vs. non-castrated DCM group (normal level)."}}, "note": "Several values for one entry are separate records, joined by “and”; a condition that tells them apart may be missing. Equal values may be shown once. Non-standard residues stand in square brackets, D forms with d. Residues, ends and D or L forms follow the SMILES beside them. *: point of attachment. dPhe(4-NHCONH2) = NC(=O)Nc1ccc(C[C@@H](N)C(=O)O)cc1; Dihydroorotyl(S) = O=C1C[C@@H](C(=O)*)NC(=O)N1; dPhe(4-Cl) = N[C@H](Cc1ccc(Cl)cc1)C(=O)O; Phe(4-NH2) = Nc1ccc(C[C@H](N)C(=O)O)cc1; d2Nal = N[C@H](Cc1ccc2ccccc2c1)C(=O)O; Lys(iPr) = CC(C)NCCCC[C@H](N)C(=O)O; d3Pal = N[C@H](Cc1cccnc1)C(=O)O", "data": [{"smiles": "CC(=O)N[C@H](Cc1ccc2ccccc2c1)C(=O)N[C@H](Cc1ccc(Cl)cc1)C(=O)N[C@H](Cc1cccnc1)C(=O)N[C@@H](CO)C(=O)N[C@@H](Cc1ccc(NC(=O)[C@@H]2CC(=O)NC(=O)N2)cc1)C(=O)N[C@H](Cc1ccc(NC(N)=O)cc1)C(=O)N[C@@H](CC(C)C)C(=O)N[C@@H](CCCCNC(C)C)C(=O)N1CCC[C@H]1C(=O)N[C@H](C)C(N)=O", "note": "[degarelix] (Ac-[d2Nal][dPhe(4-Cl)][d3Pal]S[Phe(4-NH2)](Dihydroorotyl(S))[dPhe(4-NHCONH2)]L[Lys(iPr)]P[dA]-NH2)", "values": [{"measurement": "plasma norepinephrine levels", "setting": "male DCM mice [1]; FIG. 5A", "value": "lowering norepinephrine plasma levels"}, {"measurement": "plasma renin activity (PRA) levels", "setting": "male DCM mice [1]; FIG. 5C", "value": "normalization of PRA levels"}, {"measurement": "pro-renin receptor ((P)RR) levels", "setting": "male DCM mice [1]; FIG. 5E", "value": "normalization of (P)RR levels"}, {"measurement": "total renin levels in circulation", "setting": "male DCM mice [1]; FIG. 5F", "value": "did not affect total renin levels"}, {"measurement": "plasma ANP levels (analyzed as NT-ANP)", "setting": "male DCM mice [1]; degarelix 15 mg/kg s.c. every 4 weeks, FIG. 6A", "value": "increases plasma levels of ANP"}, {"measurement": "plasma cGMP levels", "setting": "male DCM mice [1]; degarelix 15 mg/kg s.c. every 4 weeks, FIG. 6B", "value": "increases plasma levels"}, {"measurement": "T plasma level (relative to Normal T, 100%)", "setting": "male DCM mice [1]; degarelix 15 mg/kg subcutaneous every 4 weeks, ELISA", "value": "~20% and ~17%"}, {"measurement": "Ejection fraction (EF)", "setting": "male WT mice (C57BL/6J); Mann-Whitney P<0.01", "value": "elevated EF"}, {"measurement": "plasma ANP levels", "setting": "male WT mice (C57BL/6J); P<0.001 Mann-Whitney", "value": "elevated ANP and cGMP plasma levels"}, {"measurement": "plasma cGMP levels", "setting": "male WT mice (C57BL/6J); P<0.001 Mann-Whitney", "value": "elevated ANP and cGMP plasma levels"}, {"measurement": "circulating T levels", "setting": "humans and mice; humans and mice, reversible, without T surge and clinical side effects", "value": "to surgical castration level"}, {"measurement": "muscle mass", "setting": "humans and mice; in vivo", "value": "does not affect muscle mass"}, {"measurement": "heart failure (HF)", "setting": "male DCM mice [2]; 20 weeks of age", "value": "attenuates HF"}, {"measurement": "heart-to-body weight ratio, HW/BW", "setting": "male DCM mice [2]; 20 weeks of age, FIG. 4B, P<0.001", "value": "reduces pathologically elevated heart"}, {"measurement": "lung-to-body weight ratio, LW/BW (pulmonary edema)", "setting": "male DCM mice [2]; 20 weeks of age, FIG. 4C, P<0.01", "value": "reduced pulmonary edema"}, {"measurement": "pleural effusion", "setting": "male DCM mice [2]; 20 weeks of age, FIG. 4D, P<0.05, Fisher exact test", "value": "reduction"}, {"measurement": "Ejection fraction (EF)", "setting": "male DCM mice [2]; treatment from 4 weeks of age, analyzed at 20 weeks (Stage D HF in untreated), vs untreated DCM, FIG. 4A", "value": "significantly improved EF"}, {"measurement": "body weights", "setting": "[3]", "value": "did not influence"}, {"measurement": "motor function", "setting": "[3]", "value": "did not influence"}]}, {"smiles": "C[C@]12CC[C@H]3[C@@H](CCC4=CC(=O)CC[C@@]43C)[C@@H]1CC[C@@H]2O", "note": "[T, testosterone]", "values": [{"measurement": "cGMP levels in plasma", "setting": "castrated male DCM mice; Reduced T vs Low T castrated DCM mice, FIG. 2A", "value": "lowered cGMP levels"}, {"measurement": "cGMP levels in cardiac LV tissue", "setting": "castrated male DCM mice; Reduced T vs Low T castrated DCM mice, FIG. 2B", "value": "lowered cGMP levels"}, {"measurement": "T plasma level (relative to Normal T, 100%)", "setting": "castrated male DCM mice; castrated DCM mice with partially restored T, 20 weeks of age, ELISA", "value": "~60", "unit": "%"}, {"measurement": "Ejection fraction (EF)", "setting": "castrated male DCM mice; castrated DCM mice, implanted pellets for 3 months, vs castrated (Low T), FIG. 1", "value": "trend toward reduced EF"}]}]}
